Results published in ChEMBL document CHEMBL1137023, “Synthesis and antibacterial activity of arylpiperazinyl oxazolidinones with diversification of the N-substituents” (2004).
≈ marks a conversion by molar mass, not a printed value.

Assays:
Enterococcus faecalis = assay: Minimum inhibitory concentration against Enterococcus faecalis ATCC 29212; type: functional
Staphylococcus aureus [1] = assay: Minimum inhibitory concentration against Staphylococcus aureus ATCC 25923; type: functional
[2] = Minimum inhibitory concentration against […] ATCC 13813; type: functional; details: Streptococcus agalactiae
Staphylococcus aureus [3] = assay: Antibacterial activity against Staphylococcus aureus was evaluated in infected mice; type: functional
Streptococcus pyogenes = assay: Minimum inhibitory concentration against Streptococcus pyogenes ATCC 8668

Row | MIC (Enterococcus faecalis) | MIC (Staphylococcus aureus [1]) | MIC [2] | MIC (Streptococcus pyogenes) | Structure (SMILES) | ED50 (Staphylococcus aureus [3])
1 | 0.25 µg/mL (≈ 0.581 µM) | 0.12 µg/mL (≈ 0.279 µM) | 0.12 µg/mL (≈ 0.279 µM) |  | NC(=S)NC[C@H]1CN(c2ccc(N3CCN(c4ccccn4)CC3)c(F)c2)C(=O)O1 | 
2 | 0.03 µg/mL (≈ 0.0672 µM) | 0.12 µg/mL (≈ 0.269 µM) | 0.12 µg/mL (≈ 0.269 µM) |  | CC(=S)NC[C@H]1CN(c2ccc(N3CCN(c4cccc(F)c4)CC3)c(F)c2)C(=O)O1 | 
3 | 0.25 µg/mL (≈ 0.562 µM) | 0.25 µg/mL (≈ 0.562 µM) | 0.12 µg/mL (≈ 0.27 µM) |  | COC(=S)NC[C@H]1CN(c2ccc(N3CCN(c4ccccc4)CC3)c(F)c2)C(=O)O1 | 
4 | 0.05 µg/mL (≈ 0.113 µM) | 0.12 µg/mL (≈ 0.271 µM) | 0.12 µg/mL (≈ 0.271 µM) |  | CC(=S)NC[C@H]1CN(c2ccc(N3CCN(c4ccccc4C)CC3)c(F)c2)C(=O)O1 | 
5 | 0.12 µg/mL (≈ 0.269 µM) | 0.12 µg/mL (≈ 0.269 µM) | 0.06 µg/mL (≈ 0.135 µM) |  | COC(=S)NC[C@H]1CN(c2ccc(N3CCN(c4ccccn4)CC3)c(F)c2)C(=O)O1 | > 16 mg/kg
6 | 0.12 µg/mL (≈ 0.253 µM) | 0.12 µg/mL (≈ 0.253 µM) | 0.12 µg/mL (≈ 0.253 µM) |  | CSC(=S)NC[C@H]1CN(c2ccc(N3CCN(c4ccccc4C)CC3)c(F)c2)C(=O)O1 | 
7 | 0.06 µg/mL (≈ 0.13 µM) | 0.03 µg/mL (≈ 0.0648 µM) | 0.03 µg/mL (≈ 0.0648 µM) |  | CC(=S)NC[C@H]1CN(c2ccc(N3CCN(c4cccc(Cl)c4)CC3)c(F)c2)C(=O)O1 | > 16 mg/kg
8 | > 64 µg/mL | 0.12 µg/mL (≈ 0.259 µM) | 0.12 µg/mL (≈ 0.259 µM) |  | CC(=S)NC[C@H]1CN(c2ccc(N3CCN(c4ccccc4Cl)CC3)c(F)c2)C(=O)O1 | 
9 | 0.25 µg/mL (≈ 0.544 µM) | 0.25 µg/mL (≈ 0.544 µM) | 0.25 µg/mL (≈ 0.544 µM) |  | COc1ccccc1N1CCN(c2ccc(N3C[C@H](CNC(N)=S)OC3=O)cc2F)CC1 | 
10 | 0.25 µg/mL (≈ 0.539 µM) | 0.12 µg/mL (≈ 0.259 µM) | 0.12 µg/mL (≈ 0.259 µM) |  | NC(=S)NC[C@H]1CN(c2ccc(N3CCN(c4ccccc4Cl)CC3)c(F)c2)C(=O)O1 | 
11 | 0.25 µg/mL (≈ 0.54 µM) | 0.12 µg/mL (≈ 0.259 µM) | 0.25 µg/mL (≈ 0.54 µM) |  | CC(=S)NC[C@H]1CN(c2ccc(N3CCN(c4ccc(Cl)cc4)CC3)c(F)c2)C(=O)O1 | 
12 | 0.25 µg/mL (≈ 0.564 µM) | 0.12 µg/mL (≈ 0.271 µM) | 0.12 µg/mL (≈ 0.271 µM) |  | Cc1ccccc1N1CCN(c2ccc(N3C[C@H](CNC(N)=S)OC3=O)cc2F)CC1 | 
13 | 0.12 µg/mL (≈ 0.279 µM) | 0.06 µg/mL (≈ 0.14 µM) | 0.06 µg/mL (≈ 0.14 µM) |  | NC(=S)NC[C@H]1CN(c2ccc(N3CCN(c4ccccc4)CC3)c(F)c2)C(=O)O1 | 
14 | 0.25 µg/mL (≈ 0.583 µM) | 0.12 µg/mL (≈ 0.28 µM) | 0.12 µg/mL (≈ 0.28 µM) |  | CC(=S)NC[C@H]1CN(c2ccc(N3CCN(c4ccccc4)CC3)c(F)c2)C(=O)O1 | 
15 | 0.25 µg/mL (≈ 0.582 µM) | 0.06 µg/mL (≈ 0.14 µM) | 0.12 µg/mL (≈ 0.279 µM) |  | CC(=S)NC[C@H]1CN(c2ccc(N3CCN(c4ccccn4)CC3)c(F)c2)C(=O)O1 | 

Further lines, the molecule ahead of its results:

Row | Structure (SMILES) | MIC (Enterococcus faecalis) | MIC (Staphylococcus aureus [1]) | MIC [2] | MIC (Streptococcus pyogenes) | ED50 (Staphylococcus aureus [3])
16 | CSC(=S)NC[C@H]1CN(c2ccc(N3CCN(c4ccccn4)CC3)c(F)c2)C(=O)O1 | 0.12 µg/mL (≈ 0.26 µM) | 0.06 µg/mL (≈ 0.13 µM) | 0.25 µg/mL (≈ 0.542 µM) |  | > 16 mg/kg
17 | O=C1O[C@@H](COc2ccccn2)CN1c1ccc(N2CCN(c3ccccc3Cl)CC2)c(F)c1 | > 64 µg/mL | > 64 µg/mL | > 64 µg/mL | > 64 µg/mL | 
18 | COc1cccc(N2CCN(c3ccc(N4C[C@H](CNC(N)=S)OC4=O)cc3F)CC2)c1 | 0.06 µg/mL (≈ 0.131 µM) | 0.03 µg/mL (≈ 0.0653 µM) | 0.06 µg/mL (≈ 0.131 µM) |  | 
19 | COc1cccc(N2CCN(c3ccc(N4C[C@H](CNC(=S)SC)OC4=O)cc3)CC2)c1 | 0.12 µg/mL (≈ 0.254 µM) | 0.12 µg/mL (≈ 0.254 µM) | 0.25 µg/mL (≈ 0.529 µM) |  | 
20 | NC(=S)NC[C@H]1CN(c2ccc(N3CCN(c4ccccc4)CC3)cc2)C(=O)O1 | 0.12 µg/mL (≈ 0.292 µM) | 0.12 µg/mL (≈ 0.292 µM) | 0.25 µg/mL (≈ 0.607 µM) |  | 
21 | NC(=S)NC[C@H]1CN(c2ccc(N3CCN(c4ccccc4Cl)CC3)cc2)C(=O)O1 | 0.06 µg/mL (≈ 0.135 µM) | 0.03 µg/mL (≈ 0.0673 µM) | 0.06 µg/mL (≈ 0.135 µM) |  | 
22 | O=C1O[C@@H](COC2CNCCN2)CN1c1ccc(N2CCN(c3ccccc3Cl)CC2)c(F)c1 (stereo partly drawn) | > 64 µg/mL | > 64 µg/mL | > 64 µg/mL | > 64 µg/mL | 
23 | NC(=S)NC[C@H]1CN(c2ccc(N3CCN(c4cccc(C(F)(F)F)c4)CC3)c(F)c2)C(=O)O1 | 0.25 µg/mL (≈ 0.502 µM) | 0.25 µg/mL (≈ 0.502 µM) | 0.12 µg/mL (≈ 0.241 µM) |  | 
24 | COC(=S)NC[C@H]1CN(c2ccc(N3CCN(c4cccc(Cl)c4)CC3)c(F)c2)C(=O)O1 | 0.12 µg/mL (≈ 0.251 µM) | 0.12 µg/mL (≈ 0.251 µM) | 0.12 µg/mL (≈ 0.251 µM) |  | 
25 | NC(=S)NC[C@H]1CN(c2ccc(N3CCN(c4ccc(Cl)cc4)CC3)c(F)c2)C(=O)O1 | 0.5 µg/mL (≈ 1.08 µM) | 0.12 µg/mL (≈ 0.259 µM) | 0.12 µg/mL (≈ 0.259 µM) |  | 
26 | CSC(=S)NC[C@H]1CN(c2ccc(N3CCN(c4cccc(Cl)c4)CC3)c(F)c2)C(=O)O1 | 0.5 µg/mL (≈ 1.01 µM) | 0.12 µg/mL (≈ 0.242 µM) | 1 µg/mL (≈ 2.02 µM) |  | 
27 | O=C1O[C@@H](CO[n+]2ccco2)CN1c1ccc(N2CCN(c3ccccc3Cl)CC2)c(F)c1 | > 64 µg/mL | > 64 µg/mL | > 64 µg/mL | > 64 µg/mL | 
28 | NC(=S)NC[C@H]1CN(c2ccc(N3CCN(c4cccc(Cl)c4)CC3)c(F)c2)C(=O)O1 | 0.06 µg/mL (≈ 0.129 µM) | 0.02 µg/mL (≈ 0.0431 µM) | 0.008 µg/mL (≈ 0.0172 µM) |  | > 16 mg/kg
29 | COC(=S)NC[C@H]1CN(c2ccc(N3CCN(c4cccc(OC)c4)CC3)c(F)c2)C(=O)O1 | 0.12 µg/mL (≈ 0.253 µM) | 0.12 µg/mL (≈ 0.253 µM) | 0.12 µg/mL (≈ 0.253 µM) |  | 
30 | CC(=O)NC[C@H]1CN(c2ccc(N3CCOCC3)c(F)c2)C(=O)O1 [LINEZOLID] |  | 0.25 µg/mL (≈ 0.741 µM) | 0.5 µg/mL (≈ 1.48 µM) | 0.5 µg/mL (≈ 1.48 µM) | 4 mg/kg
